US5039689A, “Antiparasitic 3(4-amino benzotriazo-1-yl-)1,2-cyclopentanediols” (Burroughs Wellcome Co., priority 1988, dated 1991)
One block for each molecule: values may come before it.

Tests used:
[1] = system: Trypanosoma brucei gambiense; assay: Activity against Trypanosoma brucei gambiense (procyclic culture, 5 days, density by Coulter Counter); type: cell-based, T. brucei subsp. gambiense procyclic (strain TH114); settings: 120 h, T. brucei gambiense procyclic TH114, medium PDM-79, 27° C., read-out: I50
Procedure: A) Activity against Trypanosoma brucei gambiense 1. T. brucei subsp. gambiense procyclic (strain TH114 from the Institut fur Schiffs und Tropenkrankheiten, Hamburg) were grown in medium PDM-79 (Fish et al; BBA714[1982]422-428) in 25 cm^2 tissue (T-25) culture flasks at 27° C. in a 5% CO^2 /air atmosphere. Drugs were dissolved in 0.1N NaOH and their concentration determined from their spectral data. Drugs were added to the PDM-79 at a volume≤1% of the total volume and the drug containing medium filter-sterilised into T-25 flasks. Flasks were inoculated to a final density of ≈10^5 /ml and incubated for 5 days at which time their density was determined by a Coulter Counter (Model ZB1). Results were expressed as % inhibition relative to the controls.

Pneumocystis carinii = assay: Activity against Pneumocystis carinii (method of Pesanti); type: cell-based; settings: read-out: I50
Procedure: (B) Activity against Pneumocystis carinii
The compounds were tested according to the method of Pesanti, (J. Infect. Dis., 141(6), 775-780, 1980).

[2] = Oral toxicology test in rats; type: in vivo; settings: Charles River CD rats, 4 mg/kg for 30 days
Procedure: Charles River CD rats were given oral doses of the compound of Example 3 at 4 mg/kg for 30 days.

SMILES: Nc1ncnc2c1ncn2[C@@H]1CC[C@@H](O)[C@H]1O (relative stereo) [Example 1C, (±)-(1R*,2S*,3R*)-3-(6-Amino-9H-purin-9-yl)-1,2-cyclopentanediol]
- IC50 [1]: 0.7 nM

- IC50 (Pneumocystis carinii): < 20000 nM
SMILES: Nc1ncnc2c1ncn2[C@H]1CC[C@@H](O)[C@H]1O (relative stereo) [Example 2, (±)-(1R*,2S*,3S*)-3-(6-Amino-9H-purin-9-yl)-1,2-cyclopentanediol]
- IC50 [1]: 1000 nM

SMILES: Nc1ncnc2c1nnn2[C@@H]1CC[C@@H](O)[C@H]1O (relative stereo) [Example 3C, (±)-(1R*,2S*,3R*)-3-(7-Amino-3H-1,2,3-triazolo[4,5-d]pyrimidin-3-yl)-1,2-cyclopentanediol]
- IC50 (Pneumocystis carinii): < 20000 nM
- treatment-related changes with respect to clinical signs of toxicity, body weight, clinical pathology or pathology [2]: No treatment-related changes were observed
- IC50 [1]: 200 nM

SMILES: Nc1ncnc2c1ncn2[C@@H]1C[C@H](CCl)[C@@H](O)[C@H]1O (relative stereo) [Example 4, (±)-(1R*,2S*,3R*,5S*)-3-(6-Amino-9H-purin-9-yl)-5-(chloromethyl)-1,2-cyclopentanediol]
- IC50 [1]: 3500 nM

SMILES: C[C@H]1C[C@@H](n2cnc3c(N)ncnc32)[C@H](O)[C@@H]1O (relative stereo) [Example 5, (±)-(1R*,2S*,3R*,5S*)-3-(6-Amino-9H-purin-9-yl)-5-methyl-1,2-cyclopentanediol]
- IC50 [1]: 2 nM

SMILES: NC(=O)[C@@H]1C[C@H](n2cnc3c(N)ncnc32)[C@@H](O)[C@H]1O (relative stereo) [Example 6, (±)-(1R*,2S*,3R*,4S*)-4-(6-Amino-9H-purin-9-yl)-2,3-dihydroxy-1-cyclopentanecarboxamide]
- IC50 [1]: 40 to 200 nM
